# Assays:
# [1] = tested on: cigarette smoke-induced COPD (BALF cells and chemokines); assay: Acute (4 day) cigarette smoke exposure COPD model; type: in vivo, female C57Bl/6 mice; settings: oral 10 mg/kg/day for 7 days
# Experimental: (§1) The efficacy of GSNOR inhibitors was assessed in a mouse model of chronic obstructive pulmonary disease (COPD) induced by short duration (4 days or 11 days) of exposure to cigarette smoke. Infiltration of inflammatory cells into the bronchoalveolar lavage fluid (BALF) and BALF levels of chemokines involved in inflammation and tissue turnover/repair were measured to assess the influences of GSNOR inhibitors on some of the early events associated with the initiation and progression of COPD.
# Efficacy of GSNOR inhibitors against COPD was explored using acute (4 day) and subchronic (11 day) models of cigarette smoke-induced COPD in mice. […] In animal models, changes in lung pathology are only evident after extended (several months) duration of exposure to cigarette smoke, thus making chronic models prohibitive as effective screening tools. […]
# Female C57Bl/6 mice (N=8 per group) were exposed to cigarette smoke using a whole body exposure chamber. […] The effects of GSNOR inhibitors were assessed by quantitating the numbers of total cells, leukocytes, and leukocytes differentials in the BALF via light microscopy and the levels of BALF chemokines via ELISA at approximately 24 h after the last smoke exposure. […]
# acute DSS-induced IBD = assay: Acute prophylactic model of DSS-induced IBD; type: in vivo, male C57Bl/6 mice
# Excerpt: Acute and chronic models of dextran sodium sulfate (DSS)-induced IBD in mice were used to explore efficacy of GSNORi against this disease. Acute and chronic DSS-induced IBD are widely used and well characterized models that induce pathological changes in the colon similar to those observed in the human disease. In these models and in human disease, epithelial cells within the crypts of the colon are disrupted, leading to dysfunction of the epithelial barrier and the ensuing tissue inflammation, edema, and ulceration. GSNORi therapy may benefit IBD by restoring s-nitrosoglutathione (GSNO) levels, and thus prevent or reverse the epithelial barrier dysfunction. Experimental IBD was induced by administration of DSS in the drinking water of male C57Bl/6 mice (N=8 to 10 mice per group) for 6 consecutive days. GSNORi was dosed orally at doses of 0.1 to 10 mg/kg/day for 10 days starting two days prior to and continuing two days post DSS exposure. Two days post DSS exposure, the effect of GSNORi was assessed in a blinded fashion via endoscopy and histopathology using a five point scale ranging from a score=0 (normal tissue) through a score=4 (ulcerative tissue damage and marked pathological changes). Levels of circulating cytokines involved in inflammatory pathways were also assessed. The effect of GSNORi was compared to vehicle treated controls. The corticosteroid, prednisolone, was used as the positive control in this study and was administered daily at 3 mg/kg/day via oral dosing. Naïve mice (N=5) were also assessed as a normal tissue control.
# [2] = tested on: cigarette smoke-induced COPD (BALF cells); assay: Subchronic (11 day) cigarette smoke exposure COPD model; type: in vivo, female C57Bl/6 mice; settings: for effects compared to positive control roflumilast: roflumilast 5 mg/kg/day
# Experimental: as §1
# Efficacy of GSNOR inhibitors against COPD was explored using acute (4 day) and subchronic (11 day) models of cigarette smoke-induced COPD in mice. […] In animal models, changes in lung pathology are only evident after extended (several months) duration of exposure to cigarette smoke, thus making chronic models prohibitive as effective screening tools. More recently, models exploring inflammatory responses after short duration (2 weeks or less) of smoke exposure in mice have been utilized as tools for screening efficacy and mechanisms of action of novel therapeutics against COPD. The key roles of inflammation in the initiation and progression of COPD, make these short duration models relevant for initial tests of efficacy of novel therapeutics.
# Female C57Bl/6 mice (N=10 per group) were exposed to cigarette smoke generated from Marlboro 100 cigarettes without filters. Exposure times were 25 min. on study day 1, 35 min. on study day 2, and 45 min. on study days 3 to 11. GSNOR inhibitors were administered one hour prior to smoke exposure on each day. GSNOR inhibitors were dosed orally at 1 to 10 mg/kg/day for 11 days. The effects of GSNOR inhibitors were assessed by quantitating the number of total cells, and leukocytes differentials in the BALF via light microscopy at 24 h after the last exposure. The effect of GSNOR inhibitors were compared to vehicle treated controls and expressed as percent inhibition of the cigarette smoke induced increases in BALF cell numbers. Roflumilast was used as the positive control for the study and was dosed at 5 mg/kg/day. A group of naïve mice (N=10) was exposed to air and dosed with vehicle as a negative control for the study.
# chronic DSS-induced IBD = assay: Chronic treatment model of DSS-induced IBD; type: in vivo, male C57Bl/6 mice; settings: oral 10 mg/kg/day for up to 14 consecutive days, treatment regimen; p<0.05
# Excerpt: Acute and chronic models of dextran sodium sulfate (DSS)-induced IBD in mice were used to explore efficacy of GSNORi against this disease. Acute and chronic DSS-induced IBD are widely used and well characterized models that induce pathological changes in the colon similar to those observed in the human disease. In these models and in human disease, epithelial cells within the crypts of the colon are disrupted, leading to dysfunction of the epithelial barrier and the ensuing tissue inflammation, edema, and ulceration. GSNORi therapy may benefit IBD by restoring s-nitrosoglutathione (GSNO) levels, and thus prevent or reverse the epithelial barrier dysfunction.
# Experimental IBD was induced by administration of DSS in the drinking water of male C57Bl/6 mice (N=10 to 12 mice per group) for 6 consecutive days. GSNORi was dosed orally at doses of 10 mg/kg/day for 14 days starting one day after cessation of DSS exposure. Efficacy of GSNORi was assessed in a blinded fashion via endoscopy after 7 days and 14 days of GSNORi dosing and via histopathology after 14 days of GSNORi dosing using a five point scale ranging from a score=0 (normal tissue) through a score=4 (ulcerative tissue damage and marked pathological changes). Levels of circulating cytokines involved in inflammatory pathways were also assessed. […] Naïve mice (N=5) were also assessed as a normal tissue control.
# [3] = oral 10 mg/kg/day for 10 consecutive days, prophylactic regimen
smiles,measurement,setting,value
"O=C(O)c1ccc(-c2ccc3cc(O)ccc3n2)cc1 [Compound 3, 4-(6-hydroxyquinolin-2-yl)benzoic acid]",BALF chemokines,[1],restored BALF chemokines towards levels observed in naïve mice
same,effects compared to positive control roflumilast,[1],comparable to or greater than those observed for roflumilast
same,circulating inflammatory cytokines,"acute DSS-induced IBD; oral 0.1, 1, or 10 mg/kg/day for 10 days, prophylactic regimen",restored circulating inflammatory cytokines towards levels observed in untreated naïve mice
same,effects compared to positive control prednisolone,acute DSS-induced IBD; prednisolone 3 mg/kg/day oral,comparable to or greater than those observed for prednisolone
"O=C(O)c1ccc(-c2ccc3cc(O)ccc3n2)c(Cl)c1 [Compound 8, 3-chloro-4-(6-hydroxyquinolin-2-yl)benzoic acid]",dose response of effect,"[2]; oral 1, 5, or 10 mg/kg/day",no dose response
same,effects compared to positive control roflumilast,[2],comparable to those of roflumilast
same,"decrease of percent of mice with severe colon injury scores via endoscopy, of vehicle control",acute DSS-induced IBD; [3],44%
same,"decrease of percent of mice with severe colon injury scores via histopathology, of vehicle control",acute DSS-induced IBD; [3],26%
"O=C(O)c1ccc(-c2ccc3cc(O)ccc3n2)c(F)c1 [Compound 13, 3-fluoro-4-(6-hydroxyquinolin-2-yl)benzoic acid]","decrease of percent of mice with severe colon injury scores via endoscopy, of vehicle control",chronic DSS-induced IBD,52%
same,"decrease of percent of mice with severe colon injury scores via histopathology, of vehicle control",chronic DSS-induced IBD,53%
same,effects compared to positive control roflumilast,[2],comparable to those of roflumilast
"Cc1cc(C(=O)O)ccc1-c1ccc2cc(O)ccc2n1 [Compound 27, 4-(6-hydroxyquinolin-2-yl)-3-methylbenzoic acid]",effects compared to positive control roflumilast,[2],comparable to those of roflumilast
